# Assay results as given in patent US8536180B2, “Pyrimidine inhibitors of kinase activity” (AbbVie Inc., priority 2009, dated 2013).
# Target: T1, C-terminal GST-tagged, recombinant, human IGF-1R, amino acids 954-1367 (Homo sapiens, UniProt P08069)
# T1 construct: human IGF-1R, amino acids 954-1367 expressed by baculovirus in Sf21 cells; GST (C); purchased Cell Signaling Technology; host or cells: baculovirus in Sf21 cells
# Assay: IGF-1R homogenous time-resolved fluorescence (HTRF) in vitro kinase assay
# Format: biochemical
# Conditions: IGF-1R kinase, ATP 50 μM final, biotinylated peptide substrate 0.5 μM, 60 minutes at room temperature
# Method: IGF-1R kinase activity was assayed by a homogenous time-resolved fluorescence (HTRF) in vitro kinase assay (Mathis, G., HTRF(R) Technology. J Biomol Screen, 1999. 4(6): p. 309-314). Specifically, 10 μL C-terminal GST-tagged, recombinant, human IGF-1R, amino acids 954-1367 expressed by baculovirus in Sf21 cells (Cell Signaling Technology) was mixed with 10 μL inhibitor (various concentrations, 2% final DMSO) and 10 μL of ATP (50 μM final concentration) in reaction buffer (50 mM HEPES, pH 7.5, 10 mM MgCl2, 2 mM MnCl2, 0.1% BSA and 1 mM DTT, 40 μL final volume). The reaction was initiated by addition of 10 μL of biotinylated peptide substrate (Biotin-Ahx-[…], 0.5 μM final concentration) in a black 384-well plate (Packard). After 60 minutes incubation at room temperature, the reaction was quenched by addition of 60 μL stop/revelation buffer to give 30 mM EDTA, 1 μg/mL streptavidin-APC (Prozyme), 50 ng/mL anti-phosphotyrosine mAb PT66-K Europium Cryptate, 30 mM HEPES, pH 7.5, 120 mM KF, 0.005% Tween-20, 0.05% BSA). The quenched reaction was allowed to stand at room temperature for 1 hour and then read in a time-resolved fluorescence detector (Envision, Perkin Elmer) at 615 nm and 665 nm simultaneously. The ratio between the signal of 615 nm and 665 nm was used in the calculation of the IC50.
# T1 sequence (P08069 954-1367): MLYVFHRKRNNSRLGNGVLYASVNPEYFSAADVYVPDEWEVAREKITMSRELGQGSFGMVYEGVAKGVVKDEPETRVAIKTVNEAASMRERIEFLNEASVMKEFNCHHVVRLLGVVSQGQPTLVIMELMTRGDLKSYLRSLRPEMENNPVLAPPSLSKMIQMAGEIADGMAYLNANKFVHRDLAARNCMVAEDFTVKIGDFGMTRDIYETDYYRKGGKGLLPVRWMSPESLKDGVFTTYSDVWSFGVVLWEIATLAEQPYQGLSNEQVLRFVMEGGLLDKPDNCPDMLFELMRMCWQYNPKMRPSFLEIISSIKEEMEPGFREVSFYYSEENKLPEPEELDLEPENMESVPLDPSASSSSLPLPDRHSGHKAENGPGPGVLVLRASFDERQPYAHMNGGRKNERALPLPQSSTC
row,SMILES,IC50 [nM]
1,"CN(C)Cc1ccc(Nc2nccc(-c3c(-c4ccc5nc(Cc6ccccc6)[nH]c5c4)nc4sccn34)n2)cc1 [Example 57, 4-[6-(2-benzyl-1H-benzimidazol-6-yl)imidazo[2,1-b][1,3]thiazol-5-yl]-N-{4-[(dimethylamino)methyl]phenyl}pyrimidin-2-amine]",< 10
2,"CN(C)Cc1ccccc1Nc1nccc(-c2c(-c3ccc4nc(Cc5ccccc5)[nH]c4c3)nc3sccn23)n1 [Example 58, 4-[6-(2-benzyl-1H-benzimidazol-6-yl)imidazo[2,1-b][1,3]thiazol-5-yl]-N-{2-[(dimethylamino)methyl]phenyl}pyrimidin-2-amine]",> 500
3,"O=C1CCCN1c1cccc(Nc2nccc(-c3c[nH]nc3-c3ccc4[nH]c(Cc5ccccc5Cl)nc4c3)n2)c1 [Example 59, 1-{3-[(4-{3-[2-(2-chlorobenzyl)-1H-benzimidazol-5-yl]-1H-pyrazol-4-yl}pyrimidin-2-yl)amino]phenyl}pyrrolidin-2-one]",101 to 500
4,"CCn1cc(-c2ccnc(Nc3cccc(CN(C)C)c3)n2)c(-c2ccc3[nH]c(Cc4ccccc4OC)nc3c2)n1 [Example 60, N-{3-[(dimethylamino)methyl]phenyl}-4-{1-ethyl-3-[2-(2-methoxybenzyl)-1H-benzimidazol-5-yl]-1H-pyrazol-4-yl}pyrimidin-2-amine]",10 to 50
5,"CCn1cc(-c2ccnc(Nc3cccc(CN(C)C)c3)n2)c(-c2ccc3[nH]c(Nc4ccccc4)nc3c2)n1 [Example 62, 5-{4-[2-({3-[(dimethylamino)methyl]phenyl}amino)pyrimidin-4-yl]-1-ethyl-1H-pyrazol-3-yl}-N-phenyl-1H-benzimidazol-2-amine]",10 to 50
6,"CCn1cc(-c2ccnc(Nc3cccc(CN(C)C)c3)n2)c(-c2ccc3[nH]c(Cc4ccccc4)nc3c2)n1 [Example 63, 4-[3-(2-benzyl-1H-benzimidazol-5-yl)-1-ethyl-1H-pyrazol-4-yl]-N-{3-[(dimethylamino)methyl]phenyl}pyrimidin-2-amine]",10 to 50
7,"CCn1cc(-c2ccnc(Nc3ccccc3OC)n2)c(-c2ccc3[nH]c(Cc4ccccc4)nc3c2)n1 [Example 64, 4-[3-(2-benzyl-1H-benzimidazol-5-yl)-1-ethyl-1H-pyrazol-4-yl]-N-(2-methoxyphenyl)pyrimidin-2-amine]",101 to 500
8,"CCn1cc(-c2ccnc(Nc3ccccc3OC)n2)c(-c2ccc3[nH]c(Cc4ccccc4OC)nc3c2)n1 [Example 65, 4-{1-ethyl-3-[2-(2-methoxybenzyl)-1H-benzimidazol-5-yl]-1H-pyrazol-4-yl}-N-(2-methoxyphenyl)pyrimidin-2-amine]",101 to 500

# Further lines, results first:
row,IC50 [nM],SMILES
1,< 10,"COc1ccccc1Cc1nc2ccc(-c3nc4sccn4c3-c3ccnc(Nc4ccc(N5CCC(N(C)C)CC5)cc4OC)n3)cc2[nH]1 [Example 55, N-{4-[4-(dimethylamino)piperidin-1-yl]-2-methoxyphenyl}-4-{6-[2-(2-methoxybenzyl)-1H-benzimidazol-6-yl]imidazo[2,1-b][1,3]thiazol-5-yl}pyrimidin-2-amine]"
2,< 10,"COc1cc(N2CCC(N(C)C)CC2)ccc1Nc1nccc(-c2c(-c3ccc4nc(Cc5ccccc5C)[nH]c4c3)nc3sccn23)n1 [Example 56, N-{4-[4-(dimethylamino)piperidin-1-yl]-2-methoxyphenyl}-4-{6-[2-(2-methylbenzyl)-1H-benzimidazol-6-yl]imidazo[2,1-b][1,3]thiazol-5-yl}pyrimidin-2-amine]"
3,10 to 50,"CCn1cc(-c2ccnc(Nc3cccc(CN(C)C)c3)n2)c(-c2ccc3[nH]c(Cc4ccccc4Cl)nc3c2)n1 [Example 61, 4-{3-[2-(2-chlorobenzyl)-1H-benzimidazol-5-yl]-1-ethyl-1H-pyrazol-4-yl}-N-{3-[(dimethylamino)methyl]phenyl}pyrimidin-2-amine]"
4,10 to 50,"CCn1cc(-c2ccnc(Nc3ccc(N4CCC(N(C)C)CC4)cc3OC)n2)c(-c2ccc3[nH]c(Cc4ccccc4)nc3c2)n1 [Example 66, 4-[3-(2-benzyl-1H-benzimidazol-5-yl)-1-ethyl-1H-pyrazol-4-yl]-N-{-4-[4-(dimethylamino)piperidin-1-yl]-2-methoxyphenyl}pyrimidin-2-amine]"
5,51 to 100,"CCn1cc(-c2ccnc(Nc3ccc(N4CCC(N(C)C)CC4)cc3OC)n2)c(-c2ccc3[nH]c(Cc4ccccc4Cl)nc3c2)n1 [Example 67, 4-{3-[2-(2-chlorobenzyl)-1H-benzimidazol-5-yl]-1-ethyl-1H-pyrazol-4-yl}-N-{4-[4-(dimethylamino)piperidin-1-yl]-2-methoxyphenyl}pyrimidin-2-amine]"
6,51 to 100,"CCn1cc(-c2ccnc(Nc3ccc(N4CCC(N(C)C)CC4)cc3OC)n2)c(-c2ccc3[nH]c(Cc4ccccc4OC)nc3c2)n1 [Example 68, N-{4-[4-(dimethylamino)piperidin-1-yl]-2-methoxyphenyl}-4-{1-ethyl-3-[2-(2-methoxybenzyl)-1H-benzimidazol-5-yl]-1H-pyrazol-4-yl}pyrimidin-2-amine]"
7,101 to 500,"CCn1cc(-c2ccnc(Nc3ccc(N4CCC(N(C)C)CC4)cc3OC)n2)c(-c2ccc3[nH]c(-c4ccccc4)nc3c2)n1 [Example 69, N-{4-[4-(dimethylamino)piperidin-1-yl]-2-methoxyphenyl}-4-[1-ethyl-3-(2-phenyl-1H-benzimidazol-5-yl)-1H-pyrazol-4-yl]pyrimidin-2-amine]"
